Results on one molecule are retold here after patent US20240018123A1, “COMPOUND FOR INHIBITING OR DISINTEGRATING ANDROGEN RECEPTOR, AND PHARMACEUTICAL USE THEREOF” (KOREA RESEARCH INSTITUTE OF CHEMICAL TECHNOLOGY, priority 2020, published 2024).

One data set addresses T1, Androgen receptor (AR) (Homo sapiens, UniProt P10275, T878A).
T1 construct: 5.5×10^5 LNCap cells were injected into each well of a 6-well plate; endogenous in cells; host or cells: LNCaP
T1 sequence (P10275 1-920 T878A): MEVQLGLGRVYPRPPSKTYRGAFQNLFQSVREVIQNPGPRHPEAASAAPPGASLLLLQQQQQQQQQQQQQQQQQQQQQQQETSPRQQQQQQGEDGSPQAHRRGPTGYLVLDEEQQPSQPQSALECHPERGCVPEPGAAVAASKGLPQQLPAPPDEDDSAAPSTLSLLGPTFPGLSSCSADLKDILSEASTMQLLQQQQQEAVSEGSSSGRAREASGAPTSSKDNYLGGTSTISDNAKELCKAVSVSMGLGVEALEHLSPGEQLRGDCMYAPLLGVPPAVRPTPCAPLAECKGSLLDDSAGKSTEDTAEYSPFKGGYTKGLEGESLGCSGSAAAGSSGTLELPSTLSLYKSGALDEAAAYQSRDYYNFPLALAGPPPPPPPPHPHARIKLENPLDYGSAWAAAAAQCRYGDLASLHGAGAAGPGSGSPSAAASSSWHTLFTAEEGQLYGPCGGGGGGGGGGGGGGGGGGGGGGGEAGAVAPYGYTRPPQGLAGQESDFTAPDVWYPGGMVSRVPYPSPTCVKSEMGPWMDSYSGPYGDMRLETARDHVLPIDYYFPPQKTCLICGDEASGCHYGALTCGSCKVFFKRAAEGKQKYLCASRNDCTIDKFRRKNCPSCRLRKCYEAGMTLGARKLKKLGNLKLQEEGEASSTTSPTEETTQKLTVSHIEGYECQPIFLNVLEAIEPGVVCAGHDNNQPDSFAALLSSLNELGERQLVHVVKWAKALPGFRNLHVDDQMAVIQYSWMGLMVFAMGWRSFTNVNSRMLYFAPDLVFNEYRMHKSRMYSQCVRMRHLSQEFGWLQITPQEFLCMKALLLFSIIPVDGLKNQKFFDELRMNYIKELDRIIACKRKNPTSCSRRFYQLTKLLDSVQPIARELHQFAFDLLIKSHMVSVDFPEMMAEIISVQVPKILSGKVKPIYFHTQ
The experiment in a line: Assessment of AR proteolytic activity (Western blotting of LNCap cell lysates). In kind it is cell-based. The following applies: 24 hours of treatment, Western blotting quantified with Image J. The gist of the method: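 AR degradation read by Western blot densitometry on RIPA lysates (pH 7.5, protease inhibitor cocktail). Lysates came from LNCap cells, 5.5×10^5 per well, exposed to compound for 24 hours.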

Another data set relates to 22RV1 cells. The experiment in a line: Cytotoxicity assessment (Cell-titer-glo cell viability), 22RV1. Type of data set: cell-based.

Description for 22RV1 cells: (§1) In order to evaluate the androgen receptor (AR) cytotoxicity of the compounds according to the present invention, the following experiment was conducted. Specifically, 1.5×10^3 (LNCaP) or 4×10^3 (VCaP, 22RV1), respectively, of LNCaP, VCaP, and 22RV1 cells were injected into each well of a 96-well plate. The next day, each well was treated with the compound at a final concentration of 3 nM, 10 nM, 30 nM, 100 nM, 300 nM, 1 μM, 3 μM, and 10 μM. […] After 6 days of treatment, Cell-titer-glo (promega) was treated and reacted for 10 minutes, and cell viability was measured with a multimode plate reader (PerkinElmer, Inc.), and the change was quantified compared to when DMSO was treated.
Description for LNCaP cells: as §1

In the case of `CC1(C)[C@H](NC(=O)c2ccc(OCCOCCOCCOCCOCCOCCCNc3cccc4nnn(C5CCC(=O)NC5=O)c(=O)c34)cc2)C(C)(C)[C@H]1Oc1ccc(C#N)c(Cl)c1` (single isomer, unassigned) [Example 4, N-((1r,3r)-3-(3-chloro-4-cyanophenoxy)-2,2,4,4-tetramethylcyclobutyl)-4-((18-((3-(2,6-dioxopiperidin-3-yl)-4-oxo-3,4-dihydrobenzo[d][1,2,3]triazin-5-yl)amino)-3,6,9,12,15-pentaoxaoctadecyl)oxy)benzamide], the “Degradation (1 μM treated in LNCaP, % AR remaining)” value at Androgen receptor (AR) is recorded as 58%. Also, the CC50 with 22RV1 cells was found to be 4.46 µM; with LNCaP cells, 5.32 µM.

Broadly, the CC50 is the concentration giving 50% cytotoxicity. Lower therefore signals harm at low concentration.
